{"source": "paper PMC2806265", "about": "“Divergence of allosteric effects of rapacuronium on binding and function of muscarinic receptors” (BMC Pharmacology, 2009)", "key": {"[1]": {"molecular_target": "T1, M1 muscarinic receptor (Homo sapiens, UniProt P11229)", "T1 construct": "host or cells: CHO cells, stably transfected; membrane preparation", "T1 sequence (P11229 1-460)": "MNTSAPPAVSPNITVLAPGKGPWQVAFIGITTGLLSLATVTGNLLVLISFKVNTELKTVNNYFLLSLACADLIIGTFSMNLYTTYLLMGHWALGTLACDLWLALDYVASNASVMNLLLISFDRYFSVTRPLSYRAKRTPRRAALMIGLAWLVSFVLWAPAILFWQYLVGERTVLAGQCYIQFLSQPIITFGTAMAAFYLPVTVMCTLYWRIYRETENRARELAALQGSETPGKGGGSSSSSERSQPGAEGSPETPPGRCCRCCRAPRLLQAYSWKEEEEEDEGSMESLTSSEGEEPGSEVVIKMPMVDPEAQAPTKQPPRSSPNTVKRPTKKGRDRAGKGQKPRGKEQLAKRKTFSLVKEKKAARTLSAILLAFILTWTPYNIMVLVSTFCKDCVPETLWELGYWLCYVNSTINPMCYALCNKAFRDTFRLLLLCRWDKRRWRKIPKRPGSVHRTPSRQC", "assay": "Effect of rapacuronium on low-affinity ACh binding ([3H]NMS + GTPγS + ACh)", "description": "(§1) Data are expressed as percent of specific binding in the absence of rapacuronium. […] Data are means ± SE from 3 independent experiments performed in quadruplicates. Curves are fits of Eq. 3 (circles) and Eq. 4 (squares and triangles) to data prior to normalization."}, "[2]": {"molecular_target": "T2, M3 muscarinic receptor (Homo sapiens, UniProt P20309)", "T2 construct": "host or cells: CHO cells, stably transfected; membranes", "T2 sequence (P20309 whole entry)": "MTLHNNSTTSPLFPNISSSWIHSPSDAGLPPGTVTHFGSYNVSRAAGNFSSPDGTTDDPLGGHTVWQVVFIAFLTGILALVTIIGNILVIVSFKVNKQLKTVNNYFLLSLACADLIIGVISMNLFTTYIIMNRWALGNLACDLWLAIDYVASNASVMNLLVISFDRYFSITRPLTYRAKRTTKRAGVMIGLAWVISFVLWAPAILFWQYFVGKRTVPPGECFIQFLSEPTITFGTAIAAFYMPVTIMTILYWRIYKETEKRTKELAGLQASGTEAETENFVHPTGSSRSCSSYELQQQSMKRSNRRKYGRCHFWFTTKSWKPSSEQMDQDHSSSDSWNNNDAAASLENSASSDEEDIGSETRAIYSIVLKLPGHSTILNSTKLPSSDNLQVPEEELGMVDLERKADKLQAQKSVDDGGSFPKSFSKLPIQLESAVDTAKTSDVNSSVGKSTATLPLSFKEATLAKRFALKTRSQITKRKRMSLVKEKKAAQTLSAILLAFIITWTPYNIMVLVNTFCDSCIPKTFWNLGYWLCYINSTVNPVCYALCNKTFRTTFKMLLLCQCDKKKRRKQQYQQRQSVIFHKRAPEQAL", "assay": "Effect of rapacuronium on low-affinity ACh binding ([3H]NMS + GTPγS + ACh)", "description": "as §1"}, "[3]": {"molecular_target": "T1, M1 muscarinic receptor", "assay": "[35S]GTPγS binding to membranes", "format": "biochemical", "details": "for EMAX of ACh on [^35S]GTPγS binding: fold of basal"}, "[4]": {"molecular_target": "T2, M3 muscarinic receptor", "assay": "biochemical", "details": "for EMAX of ACh on [^35S]GTPγS binding: fold of basal"}, "[5]": {"tested_on": "nontransfected CHO-K1 cells", "assay": "[35S]GTPγS binding to membranes from nontransfected cells", "format": "biochemical, Chinese hamster", "procedure": "Figure 6 Effects of rapacuronium on ACh-induced [^35S]GTPγS binding to membranes. Membranes from CHO cells expressing individual subtypes of muscarinic receptors or nontransfected CHO-K1 cells were preincubated for 60 min with buffer (closed symbols) or with rapacuronium (open symbols). […] Data are expressed as fold increase of basal [^35S]GTPγS binding and are presented as means ± SE from 3 independent experiments performed in quadruplicates. Curves are fits of Eq. 5 to data."}, "[6]": {"molecular_target": "T3, M2 muscarinic receptor (Homo sapiens, UniProt P08172)", "T3 sequence (P08172 1-466)": "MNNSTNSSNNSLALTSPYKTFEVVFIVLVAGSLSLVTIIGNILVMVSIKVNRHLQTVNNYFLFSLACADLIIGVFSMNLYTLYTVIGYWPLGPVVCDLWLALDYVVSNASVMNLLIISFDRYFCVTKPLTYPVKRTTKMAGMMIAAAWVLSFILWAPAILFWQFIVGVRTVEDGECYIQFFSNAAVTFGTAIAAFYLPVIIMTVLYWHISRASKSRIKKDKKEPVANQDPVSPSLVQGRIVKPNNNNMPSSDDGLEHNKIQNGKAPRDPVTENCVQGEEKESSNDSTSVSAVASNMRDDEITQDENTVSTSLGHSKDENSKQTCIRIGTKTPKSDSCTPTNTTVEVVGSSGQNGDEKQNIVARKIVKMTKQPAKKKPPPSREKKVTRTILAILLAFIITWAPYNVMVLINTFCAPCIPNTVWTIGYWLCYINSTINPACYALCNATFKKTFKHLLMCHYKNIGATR", "assay": "[3H]NMS dissociation"}, "[7]": {"molecular_target": "T4, M4 muscarinic receptor (Homo sapiens, UniProt P08173)", "T4 sequence (P08173 1-479)": "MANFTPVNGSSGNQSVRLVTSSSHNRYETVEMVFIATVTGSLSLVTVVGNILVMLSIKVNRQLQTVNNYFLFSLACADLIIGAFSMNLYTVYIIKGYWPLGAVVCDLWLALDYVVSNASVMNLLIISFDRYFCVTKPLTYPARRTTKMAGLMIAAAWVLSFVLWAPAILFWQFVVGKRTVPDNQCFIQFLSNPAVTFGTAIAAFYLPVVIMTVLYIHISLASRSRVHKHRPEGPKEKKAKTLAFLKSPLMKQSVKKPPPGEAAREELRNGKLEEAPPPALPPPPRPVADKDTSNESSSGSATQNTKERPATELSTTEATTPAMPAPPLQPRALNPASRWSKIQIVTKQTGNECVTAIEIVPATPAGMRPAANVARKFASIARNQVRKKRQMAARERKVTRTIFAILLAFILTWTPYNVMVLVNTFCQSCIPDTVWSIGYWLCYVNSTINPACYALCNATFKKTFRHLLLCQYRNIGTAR", "assay": "[3H]NMS saturation binding"}, "[8]": {"molecular_target": "T4, M4 muscarinic receptor", "assay": "Effect of rapacuronium on 1 nM [3H]NMS binding", "design": "host or cells: CHO cells, stably transfected; membranes", "description": "(§2) Cooperativity factor greater than 1 denotes negative cooperativity and less than 1 positive cooperativity. Due to its log-normal error distribution factors of cooperativity are expressed as negative logarithms (pα) through the manuscript so negative values denotes negative cooperativity and positive value denotes positive cooperativity."}, "[9]": {"molecular_target": "T3, M2 muscarinic receptor", "assay": "Effect of rapacuronium on 1 nM [3H]NMS binding", "design": "host or cells: CHO cells, stably transfected; membrane preparation", "description": "as §2"}, "[10]": {"molecular_target": "T3, M2 muscarinic receptor", "assay": "Effect of rapacuronium on low-affinity ACh binding ([3H]NMS + GTPγS + ACh)", "design": "host or cells: CHO cells, stably transfected; membrane preparation", "description": "as §1"}, "[11]": {"details": "read-out: pKA of rapacuronium (converted)"}, "[12]": {"details": "rapacuronium alone, normalized to absence of rapacuronium"}, "[13]": {"details": "M2, negative value = negative cooperativity"}}, "note": "Marks after values point to notes of the source that are not given here.", "data": [{"smiles": "C=CC[N+]1([C@H]2C[C@H]3[C@@H]4CC[C@H]5C[C@H](OC(C)=O)[C@@H](N6CCCCC6)C[C@]5(C)[C@H]4CC[C@]3(C)[C@H]2OC(=O)CC)CCCCC1", "note": "[rapacuronium]", "values": [{"measurement": "Kd", "setting": "[1]", "result": 4.68, "unit": "µM"}, {"measurement": "pβ, cooperativity with ACh low affinity binding", "setting": "[1]; M1, negative value = negative cooperativity", "result": "-1.32 ± 0.06"}, {"measurement": "decrease in ACh low-affinity binding (cooperativity)", "setting": "[2]; M3", "result": 16, "unit": "fold"}, {"measurement": "pβ, cooperativity with ACh low affinity binding", "setting": "[2]; M3, negative value = negative cooperativity", "result": "-1.20 ± 0.07"}, {"measurement": "Kd", "setting": "[2]; [11]", "result": 17, "unit": "µM"}, {"measurement": "decrease in ACh EC50", "setting": "[3]; 0.1 μM rapacuronium", "result": 1.5, "unit": "fold"}, {"measurement": "decrease in ACh EC50", "setting": "[3]; 1 μM rapacuronium", "result": 4, "unit": "fold"}, {"measurement": "EMAX of ACh on [^35S]GTPγS binding", "setting": "[3]; + 0.1 μM rapacuronium", "result": "2.35 ± 0.12"}, {"measurement": "EMAX of ACh on [^35S]GTPγS binding", "setting": "[3]; + 1 μM rapacuronium", "result": "2.28 ± 0.12"}, {"measurement": "EMAX of ACh on [^35S]GTPγS binding", "setting": "[3]; + 10 μM rapacuronium", "result": "2.27 ± 0.11"}, {"measurement": "EMAX of rapacuronium on [^35S]GTPγS binding", "setting": "[3]; [12]", "result": "0.76 ± 0.08"}, {"measurement": "EC50", "setting": "[3]; rapacuronium alone, read-out: pEC50 of rapacuronium on [^35S]GTPγS binding (converted)", "result": 50.1, "unit": "µM"}, {"measurement": "decrease in ACh EC50", "setting": "[4]; 0.1 μM rapacuronium", "result": 2, "unit": "fold"}, {"measurement": "decrease in ACh EC50", "setting": "[4]; 1 μM rapacuronium", "result": 2, "unit": "fold"}, {"measurement": "increase in ACh EC50", "setting": "[4]; 10 μM rapacuronium", "result": "about 3 fold"}, {"measurement": "EMAX of ACh on [^35S]GTPγS binding", "setting": "[4]; + 0.1 μM rapacuronium", "result": "2.78 ± 0.11"}, {"measurement": "EMAX of ACh on [^35S]GTPγS binding", "setting": "[4]; + 1 μM rapacuronium", "result": "2.52 ± 0.08"}, {"measurement": "EMAX of ACh on [^35S]GTPγS binding", "setting": "[4]; + 10 μM rapacuronium", "result": "2.12 ± 0.09"}, {"measurement": "EMAX of rapacuronium on [^35S]GTPγS binding", "setting": "[4]; [12]", "result": "0.75 ± 0.07"}, {"measurement": "EC50", "setting": "[4]; rapacuronium alone, read-out: EC50 of lowering [^35S]GTPγS binding", "result": 76, "unit": "µM"}, {"measurement": "Emax at 0.1 µM", "setting": "[4]; read-out: increase in ACh EMAX, 0.1 μM rapacuronium", "result": "~60", "unit": "%"}, {"measurement": "Emax at 1 µM", "setting": "[4]; read-out: increase in ACh EMAX, 1 μM rapacuronium", "result": "~35", "unit": "%"}, {"measurement": "effect on [^35S]GTPγS binding", "setting": "[5]", "result": "did not decrease"}, {"measurement": "decrease in rate of [^3H]NMS dissociation", "setting": "[6]; 100 μM rapacuronium", "result": 7, "unit": "fold"}, {"measurement": "f2, fraction of sites with faster dissociation", "setting": "[6]; + 100 μM rapacuronium", "result": "23 ± 5", "unit": "%"}, {"measurement": "koff1 of [^3H]NMS dissociation", "setting": "[6]; + 100 μM rapacuronium", "result": "0.026 ± 0.002* min^-1"}, {"measurement": "koff2 of [^3H]NMS dissociation", "setting": "[6]; + 100 μM rapacuronium", "result": "0.0127 ± 0.00183", "unit": "s⁻¹"}, {"measurement": "BMAX of [^3H]NMS", "setting": "[7]; + 10 μM rapacuronium", "result": "1.17 ± 0.13 fmol/μg of protein"}, {"measurement": "BMAX of [^3H]NMS", "setting": "[7]; + 100 μM rapacuronium", "result": "1.06 ± 0.10 fmol/μg of protein"}, {"measurement": "pα, cooperativity with [^3H]NMS", "setting": "[8]; M4, negative value = negative cooperativity", "result": "-1.40 ± 0.04"}, {"measurement": "Kd", "setting": "[8]; [11]", "result": 3.8, "unit": "µM"}, {"measurement": "decrease in affinity of [^3H]NMS (cooperativity)", "setting": "[9]; M2", "result": 6.8, "unit": "fold"}, {"measurement": "pα, cooperativity with [^3H]NMS", "setting": "[9]; [13]", "result": "-0.83 ± 0.07"}, {"measurement": "Kd", "setting": "[9]; [11]", "result": 2.57, "unit": "µM"}, {"measurement": "pβ, cooperativity with ACh low affinity binding", "setting": "[10]; [13]", "result": "-1.52 ± 0.06"}, {"measurement": "Kd", "setting": "[10]; [11]", "result": 2.75, "unit": "µM"}]}]}
